Here are results for 17 compounds from publication PMC12024577, “Synthesis and Antiproliferative Effects of Grossheimin-Derived Aminoanalogues” (Biomolecules, 2025).

Where two headings read alike, the source gives them in different places.

The test system of one assay is CDD-19Lu fibroblasts. Put plainly: Cytotoxic effect on fibroblasts. In kind it is cell-based. The procedure: (§1) The anticancer activity of the compounds was tested in 96-well flat-bottomed microtiter plates. In this assay, the two-fold serial dilutions of the compounds (concentration range: 100–0.19 μM) were made in a 100 μL RPMI 1640 medium. Next, 1 × 10^4 of human colonic adenocarcinoma cells (Colo205 or Colo320) in a 100 μL RPMI 1640 medium were added to each well except for the medium control wells. The starting concentration of the solvent DMSO in the plate was 2% v/v. The samples were incubated at 37 °C for 24 h. At the end of the incubation, 20 μL of an MTT (thiazolyl blue tetrazolium bromide) solution (from a 5 mg/mL stock solution) was pipetted to each well. After incubation at 37 °C for 4 h, 100 μL of a sodium dodecyl sulfate (SDS) solution (10% SDS in 0.01 M HCl) was pipetted to each well, and the plates were kept at 37 °C overnight. The growth of the cells was determined by measuring the optical density (OD) at 540 nm (refering to 630 nm) with a Multiscan EX ELISA reader (Thermo Labsystems, Cheshire, WA, USA). The inhibition of cell growth was calculated as IC50 values, defined as the inhibitory dose that reduces the growth of the cells exposed to the tested compounds by 50%. The IC50 values and the SD of the triplicate experiments were determined using GraphPad Prism software version 5.00 for Windows with a non-linear regression curve fit (GraphPad Software, San Diego, CA, USA; www.graphpad.com). Doxorubicin (from a 2 mg/mL stock solution, Teva Pharmaceuticals, Singapore) served as a positive control.
3. Cytotoxic effects of grossheimin-based aminoanalogues
Table S1. Cytotoxic effects of grossheimin-based aminoanalogues on colon adenocarcinoma cell lines and
CDD-19Lu fibroblasts. Doxorubicin (DOX) was applied as a positive control . n.d: not determined. Starting
concentration of grossheimin-based aminoanalogs and DOX in the assay with CDD-19Lu fibroblasts is 100 and […]

The subject of assay [1] is colorectal cancer HCT-116 cell lines. Details: method as in doi:10.14188/j.ajsh.2023.03.009. Conditions: cited from earlier work.
The test system of assay [2] is Colo320/MDR-LRP (doxorubicin-resistant ABCB1- and LRP-expressing human colon adenocarcinoma cell line). In words: MTT assay, cytotoxic effect on Colo320. The assay is classed as cell-based. Conditions: COLO 320, 24 h incubation. On the procedure:
(§2) The doxorubicin-sensitive Colo205 (ATCC-CCL-222) and the doxorubicin-resistant ABCB1- and LRP-expressing Colo320/MDR-LRP (ATCC-CCL-220.1) human colon adenocarcinoma cell lines were obtained from LGC Promochem in Teddington, UK. For culturing, the RPMI 1640 medium was applied and was supplemented with a 10% heat-inactivated foetal bovine serum (FBS), 2 mM L-glutamine, 1 mM Na-pyruvate and 10 mM HEPES along with nystatin and gentamicin.
as §1
(§3) Since several sesquiterpene lactone-based aminoadducts exerted a significant cytotoxic action on different human cancer cell lines, the in vitro cytotoxic activities of the prepared grossheimin-based amino analogues were also tested on human colon adenocarcinoma lines, including Colo205 and Colo320 by MTT assay.
Background: Tetrazolium assays rely on reduction of a dye to a coloured formazan, in cell work by metabolically active cells.

Assay [3] deals with Colo205 (doxorubicin-sensitive human colon adenocarcinoma cell line). Put plainly: MTT assay, cytotoxic effect on Colo205. The assay is classed as cell-based. As to conditions: COLO 205, 24 h incubation. On the procedure: as §2, §1, §3
For the next assay, the system named is MDA-MB-231. Also on record: method as in doi:10.14188/j.ajsh.2023.03.009. Conditions: cited from earlier work.
For assay [4], the system named is human colon adenocarcinoma lines, including Colo205 and Colo320. Put plainly: MTT assay, colon adenocarcinoma lines. The assay is classed as cell-based. Conditions: text summary over Colo205 and Colo320, read-out: IC50 against colon adenocarcinoma cancers / malignant cell lines. The procedure:
as §2
The anticancer activity of the compounds was tested in 96-well flat-bottomed microtiter plates. In this assay, the two-fold serial dilutions of the compounds (concentration range: 100–0.19 μM) were made in a 100 μL RPMI 1640 medium. Next, 1 × 10^4 of human colonic adenocarcinoma cells (Colo205 or Colo320) in a 100 μL RPMI 1640 medium were added to each well except for the medium control wells. The starting concentration of the solvent DMSO in the plate was 2% v/v. The samples were incubated at 37 °C for 24 h. […] The growth of the cells was determined by measuring the optical density (OD) at 540 nm (refering to 630 nm) with a Multiscan EX ELISA reader (Thermo Labsystems, Cheshire, WA, USA). […] The IC50 values and the SD of the triplicate experiments were determined using GraphPad Prism software version 5.00 for Windows with a non-linear regression curve fit (GraphPad Software, San Diego, CA, USA; www.graphpad.com). […]

Setting [5] is: Homo sapiens, CCD 19Lu, fibroblasts, Table S1, starting concentration 100 (analogues) and 8.62 (DOX), read-out: IC50 CCD-19Lu.
The mark [6] stands for this setting: Fibroblast, fibroblasts, Table 2, read-out: IC50 CDD-19Lu.

Consider `C=C1C(=O)O[C@H]2[C@H]1[C@@H](O)CC(=C)[C@@H]1CC(=O)[C@@H](C)[C@H]21` [Compound 1, Grossheimin], for which the IC50 with CDD-19Lu fibroblasts (Fibroblast, read-out: IC50 CDD-19Lu) was above 100 µM; in assay [1], 30.9 µM; in assay [2] (Table 2), 27.9 ± 2 µM; in assay [3] (Table 2), 23.3 ± 2.05 µM; with MDA-MB-231 it was 16.9 µM.
In the case of `C=C1C[C@H](OC(C)=O)[C@@H]2[C@H](OC(=O)[C@H]2C)[C@H]2[C@H](C)[C@@H](OC(C)=O)C[C@@H]12` [Compound 4], the IC50 (in the assay on CDD-19Lu fibroblasts (setting [5]); in assay [2] (Table S1); in assay [3] (Table S1)) was above 100 µM throughout.
As to `C=C1C[C@H](O)[C@@H]2[C@H](OC(=O)[C@H]2CSCc2ccccc2)[C@H]2[C@H](C)C(=O)C[C@@H]12` [Compound 8], the IC50 (with CDD-19Lu fibroblasts (setting [5]); in assay [2] (Table S1); in assay [3] (Table S1)) was above 100 µM each time.
As to `C=C1C[C@H](O)[C@@H]2[C@H](OC(=O)[C@H]2C)[C@H]2[C@H](C)[C@H](O)C[C@@H]12` [Compound 3], the IC50 (with CDD-19Lu fibroblasts (setting [5]); in assay [2] (Table S1); in assay [3] (Table S1)) was above 100 µM throughout.
For `C=C1C[C@H](O)[C@@H]2[C@H](OC(=O)[C@H]2COC)[C@H]2[C@H](C)[C@@H](O)C[C@@H]12` [Compound 15], the IC50 in assay [2] (Table S1) and in assay [3] (Table S1) was above 100 µM throughout.
With `COc1cccc2c1C(=O)c1c(O)c3c(c(O)c1C2=O)C[C@@](O)(C(=O)CO)C[C@@H]3O[C@H]1C[C@H](N)[C@H](O)[C@H](C)O1` [DOX, Doxorubicin, reference compound], the IC50 is above 8.62 µM with CDD-19Lu fibroblasts (setting [6]), 4.36 ± 0.08 µM in assay [2] (Table 2) and 3.21 ± 0.03 µM in assay [3] (Table 2).
Take `C=C1C(=O)O[C@H]2[C@H]1[C@@H](OC(C)=O)CC(=C)[C@@H]1C[C@H](OC(C)=O)[C@@H](C)[C@H]21` [Compound 13]: the IC50 was 29.1 ± 0.46 µM with CDD-19Lu fibroblasts (setting [6]), 6.98 ± 0.29 µM in assay [2] (Table 2), 8.21 ± 0.51 µM in assay [3] (Table 2) and around 8 µM in assay [4].
For `C=C1C[C@H](O)[C@@H]2[C@H](OC(=O)[C@H]2CNC=O)[C@H]2[C@H](C)C(=O)C[C@@H]12` [Compound 7], the IC50 in assay [2] (Table S1) and in assay [3] (Table S1) was above 100 µM each time.
In the case of `C=C1C(=O)O[C@H]2[C@H]1[C@@H](O)CC(=C)[C@@H]1C[C@H](O)[C@@H](C)[C@H]21` [Compound 12], the IC50 in the assay on CDD-19Lu fibroblasts (setting [6]) was above 100 µM; in assay [2] (Table 2), 53.6 ± 1.6 µM; in assay [3] (Table 2), 63.8 ± 1.32 µM.
As to `C=C1C[C@H](O)[C@@H]2[C@H](OC(=O)[C@H]2CSCc2ccccc2)[C@H]2[C@H](C)[C@H](O)C[C@@H]12` [Compound 9], the IC50 (in the assay on CDD-19Lu fibroblasts (setting [5]); in assay [2] (Table S1); in assay [3] (Table S1)) was above 100 µM throughout.
Take `C=C1C(=O)O[C@H]2[C@H]1[C@@H](OC(C)=O)CC(=C)[C@@H]1CC(=O)[C@@H](C)[C@H]21` [Compound 2]: the IC50 in the assay with CDD-19Lu fibroblasts (setting [6]) was above 100 µM; in assay [2] (Table 2), 9.44 ± 0.41 µM; in assay [3] (Table 2) it was 8.21 ± 0.51 µM; in assay [4], around 9 µM.
Turning to `C=C1C[C@H](O)[C@@H]2[C@H](OC(=O)[C@H]2CNC=O)[C@H]2[C@H](C)[C@@H](O)C[C@@H]12` [Compound 14], the IC50 in assay [2] (Table S1) and in assay [3] (Table S1) was above 100 µM throughout.
`C=C1C[C@H](O)[C@@H]2[C@H](OC(=O)[C@H]2CNCc2ccccc2)[C@H]2[C@H](C)[C@@H](O)C[C@@H]12` [Compound 6]: the IC50 (with CDD-19Lu fibroblasts (setting [5]); in assay [2] (Table S1); in assay [3] (Table S1)) was above 100 µM each time.
As for `C=C1C[C@H](O)[C@@H]2[C@H](OC(=O)[C@H]2Cn2cnc3ccccc32)[C@H]2[C@H](C)[C@@H](O)C[C@@H]12` [Compound 16a], the IC50 (with CDD-19Lu fibroblasts (setting [5]); in assay [2] (Table S1); in assay [3] (Table S1)) was above 100 µM each time.
Consider `C=C1C[C@H](O)[C@@H]2[C@H](OC(=O)[C@H]2Cn2cnc3ccccc32)[C@H]2[C@H](C)C(=O)C[C@@H]12` [Compound 11f], for which the IC50 (in the assay with CDD-19Lu fibroblasts (setting [5]); in assay [2] (Table S1); in assay [3] (Table S1)) was above 100 µM in each case.
`C=C1C[C@H](O)[C@@H]2[C@H](OC(=O)[C@H]2COC)[C@H]2[C@H](C)C(=O)C[C@@H]12` [Compound 10]: the IC50 in assay [2] (Table S1) and in assay [3] (Table S1) was above 100 µM throughout.
As to `C=C1C[C@H](O)[C@@H]2[C@H](OC(=O)[C@H]2CNCc2ccccc2)[C@H]2[C@H](C)C(=O)C[C@@H]12` [Compound 5], the IC50 (in the assay with CDD-19Lu fibroblasts (setting [5]); in assay [2] (Table S1); in assay [3] (Table S1)) was above 100 µM in each case.
